Assay results taken from article PMC4447972, “Mechanism of the Association between Na^+ Binding and Conformations at the Intracellular Gate in Neurotransmitter:Sodium Symporters” (The Journal of Biological Chemistry, 2015).

Columns and labels:
DAT (hDAT) = molecular target: T1, DAT (hDAT) (Homo sapiens, UniProt Q01959); conditions: read-out: DA Km; 130 mM NaCl, pH 7.4; 6 nM [3H]DA plus unlabelled DA; apparent affinity for uptake
T1 construct: gene SLC6A3

[1] = substrate: NCCc1ccc(O)c(O)c1; assay: cells, lysate or membranes; conditions: 130 mM NaCl, pH 7.4, 6 nM [3H]DA plus unlabelled DA, apparent affinity for uptake

T1 sequence (Q01959 whole entry): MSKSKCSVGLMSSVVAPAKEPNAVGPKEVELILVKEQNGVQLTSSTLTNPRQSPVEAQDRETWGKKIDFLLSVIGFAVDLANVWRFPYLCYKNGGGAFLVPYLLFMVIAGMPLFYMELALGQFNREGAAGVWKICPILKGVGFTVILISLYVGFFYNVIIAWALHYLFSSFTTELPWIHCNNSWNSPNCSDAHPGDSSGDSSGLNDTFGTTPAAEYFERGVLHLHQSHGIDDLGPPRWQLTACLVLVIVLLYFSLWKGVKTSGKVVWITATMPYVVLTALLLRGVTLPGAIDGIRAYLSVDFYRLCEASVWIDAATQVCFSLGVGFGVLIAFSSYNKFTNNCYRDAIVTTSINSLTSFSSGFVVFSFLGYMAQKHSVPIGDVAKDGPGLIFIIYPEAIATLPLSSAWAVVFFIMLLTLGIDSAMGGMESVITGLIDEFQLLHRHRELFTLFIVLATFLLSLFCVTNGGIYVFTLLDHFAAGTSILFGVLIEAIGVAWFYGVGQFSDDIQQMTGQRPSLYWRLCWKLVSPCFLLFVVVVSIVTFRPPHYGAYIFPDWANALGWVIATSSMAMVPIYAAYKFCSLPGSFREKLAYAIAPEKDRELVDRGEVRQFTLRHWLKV

Row | Molecule | Km (DAT (hDAT)) [µM] | Km [1]
1 | NCCc1ccc(O)c(O)c1 [dopamine] | 1.2 | –
2 | DAT (hDAT) (Homo sapiens; D436A) (protein) MSKSKCSVGLMSSVVAPAKEPNAVGPKEVELILVKEQNGVQLTSSTLTNPRQSPVEAQDRETWGKKIDFLLSVIGFAVDLANVWRFPYLCYKNGGGAFLVPYLLFMVIAGMPLFYMELALGQFNREGAAGVWKICPILKGVGFTVILISLYVGFFYNVIIAWALHYLFSSFTTELPWIHCNNSWNSPNCSDAHPGDSSGDSSGLNDTFGTTPAAEYFERGVLHLHQSHGIDDLGPPRWQLTACLVLVIVLLYFSLWKGVKTSGKVVWITATMPYVVLTALLLRGVTLPGAIDGIRAYLSVDFYRLCEASVWIDAATQVCFSLGVGFGVLIAFSSYNKFTNNCYRDAIVTTSINSLTSFSSGFVVFSFLGYMAQKHSVPIGDVAKDGPGLIFIIYPEAIATLPLSSAWAVVFFIMLLTLGIDSAMGGMESVITGLIAEFQLLHRHRELFTLFIVLATFLLSLFCVTNGGIYVFTLLDHFAAGTSILFGVLIEAIGVAWFYGVGQFSDDIQQMTGQRPSLYWRLCWKLVSPCFLLFVVVVSIVTFRPPHYGAYIFPDWANALGWVIATSSMAMVPIYAAYKFCSLPGSFREKLAYAIAPEKDRELVDRGEVRQFTLRHWLKV | – | 0.15 [0.13;0.18] μM
